Molecules are shown by their SMILES. Where a name gives a salt, the structure may show the parent alone.

The record followed here is patent US20200361895A1, “NOVEL SULFONAMIDE CARBOXAMIDE COMPOUNDS” (Inflazome Limited, priority 2017, published 2020).

The target of experiment [1] is T1, NLRP3 (Homo sapiens, UniProt Q96P20). The experiment in a line: THP-1 cells pyroptosis assay (LPS + nigericin, resazurin readout; THP IC50). Also noted: Seed THP-1 cells (25,000 cells/well) containing 1.0 μg/ml LPS in 40 μl of RPMI medium; host or cells: THP-1 cells. The format is cell-based. The method, boiled down: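 Human THP-1 cells, 25,000/well in serum-free RPMI with 1 μg/ml LPS, treated 3 hrs at 37° C with compound (8-point half-log, 10 μM top, 0.1% DMSO), then 5 μM nigericin 1 hr. Viability by 100 μM resazurin fluorescence after 1-2 hrs; IC50 by 4-parameter fit.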
T1 sequence (Q96P20 whole entry): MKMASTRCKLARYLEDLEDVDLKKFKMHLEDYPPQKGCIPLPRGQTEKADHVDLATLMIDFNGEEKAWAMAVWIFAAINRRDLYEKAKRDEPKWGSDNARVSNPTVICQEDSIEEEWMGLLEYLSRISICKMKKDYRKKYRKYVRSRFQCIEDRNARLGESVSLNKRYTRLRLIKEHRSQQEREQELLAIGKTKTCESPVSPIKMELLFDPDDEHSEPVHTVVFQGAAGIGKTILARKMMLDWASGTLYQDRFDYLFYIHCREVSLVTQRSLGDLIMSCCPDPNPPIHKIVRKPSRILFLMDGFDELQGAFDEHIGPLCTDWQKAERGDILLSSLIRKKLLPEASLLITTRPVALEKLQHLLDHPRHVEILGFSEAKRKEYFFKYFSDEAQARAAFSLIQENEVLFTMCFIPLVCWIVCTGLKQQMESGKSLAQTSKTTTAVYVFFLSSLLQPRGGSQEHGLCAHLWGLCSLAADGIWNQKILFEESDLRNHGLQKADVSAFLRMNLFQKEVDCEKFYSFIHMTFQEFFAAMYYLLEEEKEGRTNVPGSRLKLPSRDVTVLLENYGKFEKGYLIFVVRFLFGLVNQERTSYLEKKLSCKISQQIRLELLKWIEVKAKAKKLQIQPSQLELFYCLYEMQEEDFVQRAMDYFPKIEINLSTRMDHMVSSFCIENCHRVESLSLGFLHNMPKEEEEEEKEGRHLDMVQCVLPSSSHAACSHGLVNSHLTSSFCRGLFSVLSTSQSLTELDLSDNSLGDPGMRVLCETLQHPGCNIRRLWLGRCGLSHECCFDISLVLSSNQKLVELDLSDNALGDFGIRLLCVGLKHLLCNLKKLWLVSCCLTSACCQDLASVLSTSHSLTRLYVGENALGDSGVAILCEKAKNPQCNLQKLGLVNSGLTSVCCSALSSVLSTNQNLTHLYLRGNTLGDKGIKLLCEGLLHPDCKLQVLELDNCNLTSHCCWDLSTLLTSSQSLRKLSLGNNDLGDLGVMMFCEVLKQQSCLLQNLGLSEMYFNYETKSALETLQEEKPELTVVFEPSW
(Resazurin is reduced to fluorescent resorufin, in cell work by metabolically active cells.)

The target of experiment [2] is T1, NLRP3. The experiment in a line: Human whole blood IL1β release assay (LPS + nigericin, AlphaLisa IL-1β; HWB IC50). The format is cell-based. Set-up: Human whole blood in Li-heparin tubes was obtained from healthy donors from a volunteer donor panel; from tissue; host or cells: human whole blood from healthy donors. The conditions noted are these: IL-1β release. The method, boiled down:
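Donor Li-heparin whole blood primed with 1 μg/ml LPS, given compound (8-point half-log series, 10 μM top; DMSO 0.1% final) for 3 h at 37 °C, then nigericin 10 μM final for 1 h. Supernatant IL-1β measured by AlphaLisa; IC50 from 4-parameter variable-slope fit.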
(In general: Alpha assays give light when donor and acceptor beads are brought close together.)

Broadly, the IC50 is the concentration that inhibits the measured activity by half. With `CC(C)c1cc(F)cc(-c2cncnc2)c1NC(=O)NS(=O)(=O)c1cc(C(=O)N(C)C)n(C)n1` [Example 32, 3-(N-((4-Fluoro-2-iso-propyl-6-(pyrimidin-5-yl)phenyl)carbamoyl)sulfamoyl)-N,N,1-trimethyl-1H-pyrazole-5-carboxamide, sodium salt], the IC50 at NLRP3 [1] and at NLRP3 [2] was at most 500 nM in each case.
`CC(C)n1ccc(S(=O)(=O)NC(=O)Nc2c(-c3ccnc(Oc4ccccc4)c3)ccc3c2CCC3)n1` [Example 286, 1-Isopropyl-N-((5-(2-phenoxypyridin-4-yl)-2,3-dihydro-1H-inden-4-yl)carbamoyl)-1H-pyrazole-3-sulfonamide, sodium salt]: the IC50 at NLRP3 [1] was at most 500 nM; at NLRP3 [2], at most 10000 nM.
On the same counts, the results for `CN1CCC2CN(S(=O)(=O)NC(=O)Nc3c(-c4ccnc(C#N)c4)ccc4c3CCC4)CC21` (centres unmarked) [Example 318, N-((5-(2-Cyanopyridin-4-yl)-2,3-dihydro-1H-inden-4-yl)carbamoyl)-1-methylhexahydropyrrolo[3,4-b]pyrrole-5(1H)-sulfonamide] are at most 1000 nM and at most 500 nM.
On the same counts, the results for `COc1cc(-c2ccc3c(c2NC(=O)NS(=O)(=O)c2ccn(CC(C)(C)O)n2)CCC3)ccn1` [Example 186, 1-(2-Hydroxy-2-methylpropyl)-N-((5-(2-methoxypyridin-4-yl)-2,3-dihydro-1H-inden-4-yl)carbamoyl)-1H-pyrazole-3-sulfonamide] are at most 500 nM and at most 500 nM.
On the same counts, the results for `COc1cc(-c2ccc3c(c2NC(=O)NS(=O)(=O)c2nc(C)cc(C)n2)CCC3)ccn1` [Example 116, N-((5-(2-Methoxypyridin-4-yl)-2,3-dihydro-1H-inden-4-yl)carbamoyl)-4,6-dimethylpyrimidine-2-sulfonamide] are at most 500 nM and at most 500 nM.
On to `COc1cc(-c2ccc3c(c2NC(=O)NS(=O)(=O)c2ccn(C4CCN(C)C4)n2)CCC3)ccn1` (centres unmarked) [Example 199, N-((5-(2-Methoxypyridin-4-yl)-2,3-dihydro-1H-inden-4-yl)carbamoyl)-1-(1-methylpyrrolidin-3-yl)-1H-pyrazole-3-sulfonamide, sodium salt], for which the IC50 on NLRP3 [1] and on NLRP3 [2] was at most 500 nM throughout.
With `CC(C)n1ccc(S(=O)(=O)NC(=O)Nc2c(-c3cccnc3)cc(F)c3c2CCC3)n1` [Example 206, N-((7-Fluoro-5-(pyridin-3-yl)-2,3-dihydro-1H-inden-4-yl)carbamoyl)-1-isopropyl-1H-pyrazole-3-sulfonamide], the results for the IC50 at NLRP3 [1] and on NLRP3 [2] were at most 500 nM and at most 5000 nM, respectively.
On the same counts, the results for `COc1cc(-c2ccc3c(c2NC(=O)NS(=O)(=O)c2ccn(C(C)(C)CN4CC(C)C4)n2)CCC3)ccn1` [Example 236, N-((5-(2-Methoxypyridin-4-yl)-2,3-dihydro-1H-inden-4-yl)carbamoyl)-1-(2-methyl-1-(3-methylazetidin-1-yl)propan-2-yl)-1H-pyrazole-3-sulfonamide] are at most 500 nM and at most 500 nM.
On the same counts, the results for `CC(C)c1cc(F)cc(-c2ccnc(C#N)c2)c1NC(=O)NS(=O)(=O)c1cc(CN(C)C)n(C)n1` [Example 48, N-((2-(2-Cyanopyridin-4-yl)-4-fluoro-6-isopropylphenyl)carbamoyl)-5-((dimethylamino)methyl)-1-methyl-1H-pyrazole-3-sulfonamide] are at most 500 nM and at most 500 nM.
In the case of `COc1cc(-c2ccc3c(c2NC(=O)NS(=O)(=O)N(C)CC2CCCN2C)CCC3)ccn1` (centres unmarked) [Example 123, 3-(N-Methyl-N-((1-methylpyrrolidin-2-yl)methyl)sulfamoyl)-1-(5-(2-methoxypyridin-4-yl)-2,3-dihydro-1H-inden-4-yl)urea], the IC50 on NLRP3 [1] and on NLRP3 [2] was at most 500 nM each time.
`COc1cc(-c2ccc3c(c2NC(=O)NS(=O)(=O)c2cnn(C(C)C)n2)CCC3)ccn1` [Example 246, 2-Isopropyl-N-((5-(2-methoxypyridin-4-yl)-2,3-dihydro-1H-inden-4-yl)carbamoyl)-2H-1,2,3-triazole-4-sulfonamide, sodium salt]: the IC50 on NLRP3 [1] is at most 500 nM; at NLRP3 [2] it was at most 1000 nM.
Taken in the same sequence, the figures for `COC1(c2cc(S(=O)(=O)NC(=O)Nc3c(-c4cccnc4)cc(F)c4c3CCC4)nn2C)COC1` [Example 59, N-((7-Fluoro-5-(pyridin-3-yl)-2,3-dihydro-1H-inden-4-yl)carbamoyl)-5-(3-methoxyoxetan-3-yl)-1-methyl-1H-pyrazole-3-sulfonamide] were at most 500 nM and at most 1000 nM.
Taken in the same sequence, the figures for `COc1cc(-c2cc(F)c3c(c2NC(=O)NS(=O)(=O)c2ccn(CCN(C)C)n2)CCC3)ccn1` [Example 63, 1-(2-(Dimethylamino)ethyl)-N-((7-fluoro-5-(2-methoxypyridin-4-yl)-2,3-dihydro-1H-inden-4-yl)carbamoyl)-1H-pyrazole-3-sulfonamide] were at most 500 nM and at most 500 nM.
`CC(C)c1cc(F)cc(-c2ccccc2)c1NC(=O)NS(=O)(=O)c1cc(CN(C)C)n(C)n1` [Example 40, 5-((Dimethylamino)methyl)-N-((5-fluoro-3-iso-propyl-[1,1′-biphenyl]-2-yl)carbamoyl)-1-methyl-1H-pyrazole-3-sulfonamide]: the IC50 on NLRP3 [1] is at most 500 nM; at NLRP3 [2], at most 1000 nM.
On the same counts, the results for `CCN(CCCS(=O)(=O)NC(=O)Nc1c(-c2ccncc2)cc(F)c2c1CCC2)Cc1ccccc1` [Example 153, 3-(Benzyl(ethyl)amino)-N-((7-fluoro-5-(pyridin-4-yl)-2,3-dihydro-1H-inden-4-yl)carbamoyl)propane-1-sulfonamide] are at most 500 nM and at most 5000 nM.
For the compound `CN1CCCC1CN(C)S(=O)(=O)NC(=O)Nc1c(-c2ccnc(C#N)c2)ccc2c1CCC2` (centres unmarked) [Example 321, 3-(N-Methyl-N-((1-methylpyrrolidin-2-yl)methyl)sulfamoyl)-1-(5-(2-cyanopyridin-4-yl)-2,3-dihydro-1H-inden-4-yl)urea], the IC50 was at most 1000 nM on NLRP3 [1] and at most 500 nM on NLRP3 [2].
Taken in the same sequence, the figures for `COc1cc(-c2c(C)cc3c(c2NC(=O)NS(=O)(=O)c2ccn(C4CC4)n2)CCC3)ccn1` [Example 314, 1-Cyclopropyl-N-((5-(2-methoxypyridin-4-yl)-6-methyl-2,3-dihydro-1H-inden-4-yl)carbamoyl)-1H-pyrazole-3-sulfonamide] were at most 500 nM and at most 1000 nM.
Taken in the same sequence, the figures for `CC(C)N1CC(S(=O)(=O)NC(=O)Nc2c(-c3ccncc3)cc(F)c3c2CCC3)C1` [Example 77, N-((7-Fluoro-5-(pyridin-4-yl)-2,3-dihydro-1H-inden-4-yl)carbamoyl)-1-isopropylazetidine-3-sulfonamide] were at most 500 nM and at most 1000 nM.
For `COc1cc(-c2cc(F)cc(C3CCCC3)c2NC(=O)NS(=O)(=O)c2ccn(C(C)C)n2)ccn1` [Example 211, N-((2-Cyclopentyl-4-fluoro-6-(2-methoxypyridin-4-yl)phenyl)carbamoyl)-1-isopropyl-1H-pyrazole-3-sulfonamide], the half-maximal inhibitory concentration (IC50) is at most 500 nM on NLRP3 [1] and at most 5000 nM on NLRP3 [2].
Taken in the same sequence, the figures for `CC(C)n1ccc(S(=O)(=O)NC(=O)Nc2c(-c3ccnc(OC4CCOCC4)c3)ccc3c2CCC3)n1` [Example 292, 1-Isopropyl-N-((5-(2-((tetrahydro-2H-pyran-4-yl)oxy)pyridin-4-yl)-2,3-dihydro-1H-inden-4-yl)carbamoyl)-1H-pyrazole-3-sulfonamide, sodium salt] were at most 500 nM and at most 1000 nM.
Taken in the same sequence, the figures for `COc1cc(-c2ccc3c(c2NC(=O)NS(=O)(=O)c2ccn(CC4CC4)n2)CCC3)ccn1` [Example 263, 1-(Cyclopropylmethyl)-N-((5-(2-methoxypyridin-4-yl)-2,3-dihydro-1H-inden-4-yl)carbamoyl)-1H-pyrazole-3-sulfonamide, sodium salt] were at most 500 nM and at most 500 nM.
On the same counts, the results for `COc1cc(-c2cc(F)c3c(c2NC(=O)NS(=O)(=O)c2ccn(C4CC4)n2)CCC3)ccn1` [Example 170, 1-Cyclopropyl-N-((7-fluoro-5-(2-methoxypyridin-4-yl)-2,3-dihydro-1H-inden-4-yl)carbamoyl)-1H-pyrazole-3-sulfonamide, sodium salt] are at most 500 nM and at most 1000 nM.
Consider `COc1cc(-c2ccc3c(c2NC(=O)NS(=O)(=O)c2ccn(C(C)C)n2)CCC3)ccn1` [Example 56, 1-Isopropyl-N-((5-(2-methoxypyridin-4-yl)-2,3-dihydro-1H-inden-4-yl)carbamoyl)-1H-pyrazole-3-sulfonamide], for which the concentration for half-maximal inhibition (IC50) on NLRP3 [1] and on NLRP3 [2] was at most 500 nM throughout.
In the case of `COC(C)(C)c1cc(S(=O)(=O)NC(=O)Nc2c(-c3cccnc3)cc(F)cc2C(C)C)nn1C` [Example 35, N-((4-Fluoro-2-iso-propyl-6-(pyridin-3-yl)phenyl)carbamoyl)-5-(2-methoxypropan-2-yl)-1-methyl-1H-pyrazole-3-sulfonamide], the IC50 at NLRP3 [1] is at most 500 nM; on NLRP3 [2], at most 1000 nM.
As to `COc1cc(-c2ccc3c(c2NC(=O)NS(=O)(=O)c2cc(C(=O)N(C)C)n(C)n2)CCC3)ccn1` [Example 169, 3-(N-((5-(2-Methoxypyridin-4-yl)-2,3-dihydro-1H-inden-4-yl)carbamoyl)sulfamoyl)-N,N,1-trimethyl-1H-pyrazole-5-carboxamide, sodium salt], the IC50 on NLRP3 [1] and at NLRP3 [2] was at most 500 nM throughout.
